Measurements taken from patent publication US10766866B2, “Deterrents for arthropods and marine organisms” (priority 2017, dated 2020).

Tests used:
[1] = test system: IsTOctR (Ixodes octopamine receptor), cloned α-like OctR; test: OctR activation: change in intracellular calcium (CALCIUM 6QR dye, FlexStation 3) in stably transfected mammalian cells; type: cell-based, Ixodes scapularis; details: agonist, read-out: IsTOctR (Ixodes octopamine receptor) EC50
Text: (§1) Functional expression of cloned arthropod OctRs and human α2-ARs: The cDNAs for α-like OctRs from different arthropod species (e.g., Anopheles gambiae, Aedes aegypti, Periplaneta americana, Drosophila melanogaster, Ixodes scapularis, Balanus improvises) and for α2-AR subtypes from humans were individually subcloned into mammalian expression vectors. These plasmids, which harbor a resistance gene for the selection drug G418 and the cDNA sequence for the receptor of interest, were individually transfected into mammalian cells using a calcium phosphate precipitation method. G418 selection was then employed to generated stable clonal cell lines. Utilizing rapid filtration radioligand binding techniques, the cell surface density of receptor expression of the individual clonal cell lines was determined at equilibrium and those with similar high levels of expression were selected for further experiments. Briefly, binding conditions were 50 mM Tris binding buffer pH 7.4 at 25° C. and an ice-cold wash buffer 10 mM Tris-HCl, pH 7.4). The radioligand was [3H]rauwolscine and non-specific binding was determined in the presence of 10 μM atipamezole. Following the addition of membranes prepared from the clonal cell lines, samples were mixed and allowed 2 hr. to reach equilibrium before rapid filtration and washing through 0.3% PEI-treated GF/C filters. The radioactivity remaining on the filters was quantified by scintillation counting. Receptor density (Bmax) was back calculated knowing the specific activity of the radioligand and applying the equation for a square hyperbola model: Bmax=(Y·(KD+X))/X, where Y is [specifically bound radioligand] and X=[radio ligand concentration]. The affinity (KD) for the radioligand for each receptor was determined in separate saturation isotherm binding experiments using the same binding conditions as describe above.
(§2) Measurement of OctR activation by measuring changes in intracellular calcium: Activation of arthropod α-like OctRs increases intracellular calcium via a Gq-coupling mechanism. This involves activation of phospholipase C leading to an increase in intracellular inositol triphosphate (IP3) which then activates IP3-gated calcium channels in the endoplasmic reticulum causing a transient rise in intracellular calcium. These changes in intracellular calcium upon OctR activation were measured by loading cells with intracellular calcium sensitive dye CALCIUM 6QR and reading the change in calcium-induced fluorescent signal over time on a FlexStation 3 microplate reader.

Aedes mosquito = test: Protection against mosquito biting and toxicity to mosquitoes; type: in vivo
[2] = biological target: T1, DmOctR (Drosophila octopamine receptor), cloned α-like OctR (Drosophila melanogaster, UniProt Q7JQF1); test: OctR activation: change in intracellular calcium (CALCIUM 6QR dye, FlexStation 3) in stably transfected mammalian cells; type: cell-based; details: agonist
T1 construct: Gq calcium readout
T1 sequence (Q7JQF1 1-645): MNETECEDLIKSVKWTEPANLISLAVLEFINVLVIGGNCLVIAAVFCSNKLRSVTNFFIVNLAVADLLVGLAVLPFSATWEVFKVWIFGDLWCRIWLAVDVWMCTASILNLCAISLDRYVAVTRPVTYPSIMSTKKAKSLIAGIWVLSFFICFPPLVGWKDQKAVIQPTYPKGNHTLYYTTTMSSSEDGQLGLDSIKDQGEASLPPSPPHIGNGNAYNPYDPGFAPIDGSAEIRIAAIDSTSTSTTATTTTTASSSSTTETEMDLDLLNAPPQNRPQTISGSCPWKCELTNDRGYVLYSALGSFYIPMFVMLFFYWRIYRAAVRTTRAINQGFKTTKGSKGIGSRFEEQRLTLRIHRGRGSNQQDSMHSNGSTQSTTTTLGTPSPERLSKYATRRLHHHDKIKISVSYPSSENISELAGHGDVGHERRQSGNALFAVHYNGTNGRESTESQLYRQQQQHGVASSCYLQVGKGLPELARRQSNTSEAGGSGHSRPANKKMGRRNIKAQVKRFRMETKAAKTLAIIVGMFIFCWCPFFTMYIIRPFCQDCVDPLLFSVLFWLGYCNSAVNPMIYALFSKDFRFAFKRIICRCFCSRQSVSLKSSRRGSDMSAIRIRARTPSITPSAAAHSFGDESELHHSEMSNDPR
Text: as §1, §2

Volatility = type: physicochemical
[3] = test system: AeOctR (Aedes octopamine receptor), cloned α-like OctR; test: OctR activation: change in intracellular calcium (CALCIUM 6QR dye, FlexStation 3) in stably transfected mammalian cells; type: cell-based, Aedes aegypti; details: agonist
Text: as §1, §2

Balanus OctR (BiOctR) = test: OctR activation, change in intracellular calcium; type: cell-based, Balanus improvises; details: Balanus barnacle OctR over Homo sapien α2-AR subtypes
Text: as §1, with “Briefly, binding conditions were 50 mM Tris binding buffer pH 7.4 at 25° C. and an ice-cold wash buffer 10 mM Tris-HCl, pH 7.4).” left out, “Following the addition of membranes prepared from the clonal cell lines, samples were mixed and allowed 2 hr. to reach equilibrium before rapid filtration and washing through 0.3% PEI-treated GF/C filters.” left out, “The affinity (KD) for the radioligand for each receptor was determined in separate saturation isotherm binding experiments using the same binding conditions as describe above.” left out

[4] = test system: Anopheles gambiae mosquito isoform A OctR (AgAOctR); test: OctR activation, change in intracellular calcium; type: cell-based; details: AgAOctR over Homo sapien α2-AR subtypes
Text: as §1, §2

[5] = test system: Ixodes scapularis tick OctR (IsTOctR); test: OctR activation, change in intracellular calcium; type: cell-based; details: Ixodes tick OctR over Homo sapien α2-AR subtypes
Text: as §1, §2

[6] = test system: Periplaneta americana OctR (PaOctR); test: OctR activation, change in intracellular calcium; type: cell-based; details: Periplaneta cockroach OctR over Homo sapien α2-AR subtypes
Text: as §1, §2

[7] = biological target: T2, Hsα2C-AR (human α2C adrenergic receptor) (Homo sapiens, UniProt P18825); test: [3H]rauwolscine competition radioligand binding, membranes of clonal mammalian cell lines; details: 50 mM Tris pH 7.4, 25° C., 2 hr, Cheng-Prusoff
T2 construct: expressed in transfected cells
T2 sequence (P18825 1-462): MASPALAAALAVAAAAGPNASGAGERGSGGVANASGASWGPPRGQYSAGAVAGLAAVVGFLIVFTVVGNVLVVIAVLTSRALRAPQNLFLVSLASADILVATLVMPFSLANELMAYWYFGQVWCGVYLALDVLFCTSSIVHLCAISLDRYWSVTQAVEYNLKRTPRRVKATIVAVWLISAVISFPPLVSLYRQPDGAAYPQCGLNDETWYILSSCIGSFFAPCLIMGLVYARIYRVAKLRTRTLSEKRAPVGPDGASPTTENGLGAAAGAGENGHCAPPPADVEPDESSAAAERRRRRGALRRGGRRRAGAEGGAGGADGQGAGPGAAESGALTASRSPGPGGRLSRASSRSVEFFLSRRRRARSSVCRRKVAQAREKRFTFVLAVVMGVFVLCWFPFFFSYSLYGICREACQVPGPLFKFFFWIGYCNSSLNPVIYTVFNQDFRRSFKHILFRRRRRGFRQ
Text: as §1
(§3) Measurement of compound affinities by competition radioligand binding: Affinities (Ki) for compounds were determined by [3H]rauwolscine competition binding using the same binding conditions as described above. The Ki values were calculated from IC50 values using the Cheng-Prusoff equation.

[8] = biological target: T3, Hsα2A-AR (human α2A adrenergic receptor) (Homo sapiens, UniProt P08913); test: as above; details: 50 mM Tris pH 7.4, 25° C., 2 hr, Cheng-Prusoff
T3 construct: expressed in transfected cells; membranes
T3 sequence (P08913 whole entry): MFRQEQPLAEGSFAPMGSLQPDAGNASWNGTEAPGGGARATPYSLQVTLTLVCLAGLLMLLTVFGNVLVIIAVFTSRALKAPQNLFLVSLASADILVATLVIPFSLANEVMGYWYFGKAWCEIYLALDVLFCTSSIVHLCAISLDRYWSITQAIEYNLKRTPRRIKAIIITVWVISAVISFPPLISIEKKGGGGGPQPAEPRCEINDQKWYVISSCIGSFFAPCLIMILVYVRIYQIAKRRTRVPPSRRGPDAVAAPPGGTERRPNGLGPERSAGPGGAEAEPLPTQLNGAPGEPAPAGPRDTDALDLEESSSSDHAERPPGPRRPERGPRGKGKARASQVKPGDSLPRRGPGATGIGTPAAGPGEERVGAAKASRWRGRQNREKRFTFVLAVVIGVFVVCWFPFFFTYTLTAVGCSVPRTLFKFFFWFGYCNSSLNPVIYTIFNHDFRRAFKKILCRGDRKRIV
Text: as §1, §3

C=C(c1cnc[nH]1)c1cccc(C)c1C [AZ0027]
EC50 [1]: 0.00051 ± 0.00028 µM
protection against mosquito biting (Aedes mosquito; Aedes mosquito): protects against Aedes mosquito biting
toxicity to mosquitoes (Aedes mosquito; DEET: at the lowest concentration that produces maximal protection against biting (LC50)): non-toxic to mosquitoes
potency relative to DEET (Aedes mosquito; protection against mosquito biting): over 500 fold
EC50 [2]: 0.0087 ± 0.0027 µM
volatility (Volatility): low volatility
EC50 [3]: 0.012 ± 0.0032 µM
selectivity Ki(Hsα2-AR)/EC50(OctR) (Balanus OctR (BiOctR)): highly selective
selectivity Ki(Hsα2-AR)/EC50(OctR) [4]: highly selective
selectivity Ki(Hsα2-AR)/EC50(OctR) [5]: highly selective
selectivity Ki(Hsα2-AR)/EC50(OctR) [6]: highly selective
Ki [7]: 0.231 ± 0.046 µM
Ki [8]: 0.109 ± 0.016 µM
